Laboratory results reported in the NIST ThermoML archive (doi:10.1016/j.jct.2005.09.003).
± gives the expanded uncertainty stated by the source.

Experiment: xn = mol fraction of the nth substance listed
Conditions: Liquid

CCCCCCCl [1-chlorohexane] + CCCCCCCC
mass density [kg/m3]
Conditions | x2 = 0 | x2 = 0.1016 | x2 = 0.1996 | x2 = 0.3153 | x2 = 0.3948 | x2 = 0.4862 | x2 = 0.5938 | x2 = 0.6966 | x2 = 0.794 | x2 = 0.9001
308.15 K, 39620 kPa | – | – | – | – | – | – | – | – | – | 735.19 ± 2.2
318.15 K, 100 kPa | 854.58 ± 0.46 | 834.04 ± 0.48 | 814.96 ± 0.48 | 793.28 ± 0.51 | 778.92 ± 0.52 | 762.93 ± 0.54 | 744.78 ± 0.56 | 728.11 ± 0.58 | 712.89 ± 0.61 | 696.93 ± 0.63
318.15 K, 2130 kPa | 856.27 ± 0.49 | 835.95 ± 0.52 | 816.81 ± 0.53 | 795.21 ± 0.56 | 780.76 ± 0.58 | 764.83 ± 0.61 | 746.83 ± 0.64 | 730.05 ± 0.66 | 714.94 ± 0.69 | 698.9 ± 0.72
318.15 K, 4150 kPa | 858.19 ± 0.52 | 837.89 ± 0.55 | 818.74 ± 0.58 | 797.18 ± 0.62 | 782.71 ± 0.64 | 766.77 ± 0.67 | 748.78 ± 0.71 | 732.01 ± 0.74 | 716.9 ± 0.77 | 700.85 ± 0.8
318.15 K, 6180 kPa | 860.06 ± 0.55 | 839.78 ± 0.59 | 820.64 ± 0.62 | 799.07 ± 0.67 | 784.6 ± 0.7 | 768.67 ± 0.74 | 750.71 ± 0.78 | 733.92 ± 0.82 | 718.79 ± 0.85 | 702.75 ± 0.89
318.15 K, 8210 kPa | 861.91 ± 0.58 | 841.62 ± 0.63 | 822.49 ± 0.67 | 800.94 ± 0.72 | 786.48 ± 0.76 | 770.55 ± 0.8 | 752.56 ± 0.85 | 735.77 ± 0.89 | 720.67 ± 0.93 | 704.6 ± 0.98
318.15 K, 10230 kPa | 863.73 ± 0.61 | 843.46 ± 0.67 | 824.34 ± 0.72 | 802.79 ± 0.78 | 788.32 ± 0.82 | 772.38 ± 0.86 | 754.41 ± 0.92 | 737.61 ± 0.97 | 722.49 ± 1 | 706.41 ± 1.1
318.15 K, 11250 kPa | 864.62 ± 0.63 | 844.35 ± 0.69 | 825.23 ± 0.74 | 803.67 ± 0.8 | 789.21 ± 0.85 | 773.28 ± 0.9 | 755.31 ± 0.95 | 738.5 ± 1 | 723.39 ± 1.1 | 707.3 ± 1.1
318.15 K, 12260 kPa | 865.5 ± 0.65 | 845.27 ± 0.7 | 826.11 ± 0.76 | 804.57 ± 0.83 | 790.11 ± 0.87 | 774.2 ± 0.93 | 756.2 ± 0.98 | 739.4 ± 1 | 724.3 ± 1.1 | 708.21 ± 1.1
318.15 K, 14290 kPa | 867.28 ± 0.68 | 847.01 ± 0.74 | 827.89 ± 0.81 | 806.35 ± 0.88 | 791.88 ± 0.93 | 775.94 ± 0.99 | 757.98 ± 1.1 | 741.15 ± 1.1 | 726.04 ± 1.2 | 709.95 ± 1.2
318.15 K, 16310 kPa | 869 ± 0.71 | 848.75 ± 0.78 | 829.61 ± 0.85 | 808.09 ± 0.93 | 793.61 ± 0.99 | 777.66 ± 1.1 | 759.69 ± 1.1 | 742.89 ± 1.2 | 727.75 ± 1.2 | 711.66 ± 1.3
318.15 K, 18340 kPa | 870.66 ± 0.74 | 850.43 ± 0.82 | 831.3 ± 0.9 | 809.76 ± 0.98 | 795.29 ± 1 | 779.35 ± 1.1 | 761.37 ± 1.2 | 744.57 ± 1.3 | 729.42 ± 1.3 | 713.3 ± 1.4
318.15 K, 20370 kPa | 872.33 ± 0.77 | 852.13 ± 0.86 | 832.97 ± 0.94 | 811.43 ± 1 | 796.96 ± 1.1 | 781.01 ± 1.2 | 763.03 ± 1.2 | 746.2 ± 1.3 | 731.08 ± 1.4 | 714.96 ± 1.5
318.15 K, 22390 kPa | 873.95 ± 0.8 | 853.71 ± 0.89 | 834.6 ± 0.98 | 813.06 ± 1.1 | 798.59 ± 1.1 | 782.65 ± 1.2 | 764.67 ± 1.3 | 747.82 ± 1.4 | 732.69 ± 1.5 | 716.55 ± 1.6
318.15 K, 24420 kPa | 875.54 ± 0.83 | 855.32 ± 0.93 | 836.2 ± 1 | 814.65 ± 1.1 | 800.17 ± 1.2 | 784.23 ± 1.3 | 766.24 ± 1.4 | 749.39 ± 1.5 | 734.25 ± 1.6 | 718.09 ± 1.6
318.15 K, 26450 kPa | 877.12 ± 0.86 | 856.9 ± 0.96 | 837.77 ± 1.1 | 816.23 ± 1.2 | 801.75 ± 1.3 | 785.8 ± 1.4 | 767.8 ± 1.4 | 750.95 ± 1.5 | 735.8 ± 1.6 | 719.69 ± 1.7
318.15 K, 28470 kPa | 878.67 ± 0.89 | 858.45 ± 1 | 839.34 ± 1.1 | 817.78 ± 1.2 | 803.29 ± 1.3 | 787.34 ± 1.4 | 769.34 ± 1.5 | 752.48 ± 1.6 | 737.32 ± 1.7 | 721.17 ± 1.8
318.15 K, 29490 kPa | 879.43 ± 0.9 | 859.22 ± 1 | 840.08 ± 1.1 | 818.54 ± 1.2 | 804.05 ± 1.3 | 788.09 ± 1.4 | 770.08 ± 1.5 | 753.23 ± 1.6 | 738.07 ± 1.7 | 721.87 ± 1.8
318.15 K, 30500 kPa | 880.19 ± 0.91 | 859.99 ± 1 | 840.84 ± 1.1 | 819.31 ± 1.3 | 804.81 ± 1.4 | 788.85 ± 1.5 | 770.85 ± 1.6 | 753.99 ± 1.7 | 738.83 ± 1.8 | 722.64 ± 1.9
318.15 K, 32530 kPa | 881.7 ± 0.94 | 861.5 ± 1.1 | 842.34 ± 1.2 | 820.8 ± 1.3 | 806.31 ± 1.4 | 790.33 ± 1.5 | 772.31 ± 1.6 | 755.45 ± 1.7 | 740.27 ± 1.8 | 724.08 ± 1.9
318.15 K, 34550 kPa | 883.17 ± 0.96 | 862.97 ± 1.1 | 843.8 ± 1.2 | 822.26 ± 1.4 | 807.75 ± 1.5 | 791.8 ± 1.6 | 773.76 ± 1.7 | 756.87 ± 1.8 | 741.69 ± 1.9 | 725.5 ± 2
318.15 K, 36580 kPa | 884.63 ± 0.99 | 864.41 ± 1.1 | 845.26 ± 1.3 | 823.71 ± 1.4 | 809.2 ± 1.5 | 793.22 ± 1.6 | 775.19 ± 1.8 | 758.28 ± 1.9 | 743.11 ± 2 | 726.91 ± 2.1
318.15 K, 38600 kPa | 886.04 ± 1 | 865.86 ± 1.2 | 846.68 ± 1.3 | 825.13 ± 1.4 | 810.6 ± 1.6 | 794.61 ± 1.7 | 776.59 ± 1.8 | 759.68 ± 1.9 | 744.49 ± 2 | 728.26 ± 2.2
318.15 K, 39620 kPa | 886.76 ± 1 | 866.55 ± 1.2 | 847.39 ± 1.3 | 825.83 ± 1.5 | 811.31 ± 1.6 | 795.32 ± 1.7 | 777.27 ± 1.8 | 760.4 ± 2 | 745.19 ± 2.1 | –
